Data as given in US9128100B2, “Non-invasive diagnostic method for the evaluation of intestinal lactase deficiency (hypolactasia)” (Venter Pharma, S.L., priority 2012, dated 2015).
Where “and” joins values, the source holds several entries; their conditions need not be identical. Identical values can stand only once.

Key:
[1] = target: T1, intestinal lactase (Homo sapiens, UniProt P09848); experiment: 4-GX test in 4-hour urine, patients with symptoms suggestive of lactose intolerance; format: in vivo
T1 construct: after its oral administration it is hydrolysed by the intestinal mucosa enzyme; from tissue; host or cells: small-intestinal mucosa (enterocyte brush border) of living human volunteers and patients, in vivo
Description: The diagnostic tests to which these patients were subjected were: • Intestinal biopsy: determining intestinal lactase activity therein. • Hydrogen breath test after the oral administration to patients of 50 g of lactose. While this test was being carried out, several capillary-blood glucose test (Glycemia tests) were carried out, calculating the highest increase observed in the blood glucose concentration compared to basal glucose level before starting the test. • 4-GX test in total urine at 0-4 and 0-5 hours, which was orally administered to patients 0.5 g of this product (or 0.45 g in a 4-GX sample including 10 wt % water), collecting the total urine accumulated over 0-4 h and 0-5 h following the administration of 4-GX and determining the amount of excreted xylose in both volumes of urine. • 4-GX test in blood which was orally administered to patients 3 g of this product (or 2.7 g in a 4-GX sample including 10 wt % water) to determine the concentration of plasma xylose in a blood sample 90 minutes after ingestion of the product. The concentration obtained was compared to a basal blood sample extracted before ingestion of 4-GX.
The 4-GX was orally administered in a single dose dissolved in 100 ml of water.
From here on, the optimum dose of 0.5 g of 4-GX (or 0.45 g in a 4-GX sample including 10 wt % water) was used in the 4-GX urine test for the diagnosis of intestinal lactase deficiency by the non-invasive method described in the present invention. This dose was dissolved in 100 ml water, and following the test protocol, 2 samples of urine excreted during the 5 hours following the administration of the drug were taken, in two interval groups: at 4 hours following administration of 4-GX and at 5 hours following administration of 4-GX.
From the data obtained from the various urine tests for intestinal lactase deficiency following oral ingestion of 4-GX described in the present invention, a descriptive statistical analysis was performed of the amount of xylose excreted in the urine up to 4 hours and up to 5 hours following said administration. The same was done with the blodd test for intestinal lactase activity following oral ingestion of 4-GX, where descriptive statistical analysis was performed on the amount of xylose present in the plasma of subjects at 90 minutes following administration of 4-GX. The net increase in the plasma xylose concentration compared to basal values was also calculated.
To obtain the statistical parameters of lactase determination using the various 4-GX tests described in the present invention and later to compare them with the results obtained from the intestinal biopsy test, hydrogen in exhaled air test and capillary-blood glucose test, the normal limits of the measurement of the total amount of xylose excreted in 4-hour and 5-hour urine and the concentration of blood xylose after 90 minutes following ingestion of 4-GX described in Table 5 were used. The normal limits for the other tests were those used in common clinical practice for the diagnosis of lactose intolerance (Arola, H. (1994) Diagnosis of hypolactasia and lactose malabsorption. Scand. J. Gastroenterol. […] (Suppl), 26-35), which are:
For the measurement of lactase by intestinal biopsy, the lower normal limit is established at 10 units/g protein, with values less than this being considered positive.

[2] = target: T1, intestinal lactase; experiment: Lower limits of normal (cut-off points) of xylose in urine and blood of healthy controls after 4-GX; format: in vivo; conditions: mean minus 1.96 SD of healthy controls
Excerpt: The indicator of the lower limit of normal was taken to be the difference between the average xylose concentrations in blood and/or the difference between the average total amounts of xylose excreted in the urine, and 1.96 times the standard deviation.
The data obtained with the 4-GX administration test in the healthy control group was used to determine the lower limits of normal of xylose in urine and blood (cut-off points). The cut-off points for the 4-GX test in urine were obtained for times of 4 hours and 5 hours because, as already seen in example 2, these times are the best for determining the amount of xylose excreted in urine following 4-GX administration and performing a reliable diagnosis of lactase deficiency. Similarly, the cut-off points for the determination of the blood xylose concentration following 4-GX administration were obtained for the time of 90 minutes following ingestion of the disaccharide. The difference between the average xylose concentration (in blood and the total quantity of xylose excreted in the urine) and 1.96 times the standard deviation was used for the lower limit of normal indicator. The lower limit of xylose accumulated in 4-hour urine was 27.58 mg; xylose accumulated in 5-hour urine was 37.87 mg and the increase in the concentration of plasma xylose after 90 minutes following ingestion of the product, compared to basal blood, was 0.97 mg/dL.

[3] = 0.5 g 4-GX, 0-4 h urine, cut-off 27.58 mg, 205 patients
[4] = 0.5 g 4-GX, 4-hour urine, lactase in intestinal biopsy as gold standard
[5] = 4-hour urine, after correcting biopsy diagnosis
[6] = 4-hour urine, after correction of the biopsy diagnostic result (five discrepancies)
[7] = 4-hour urine, after correction of the biopsy diagnostic result (four discrepancies)
[8] = 4-hour urine, biopsy as gold standard
[9] = 4-hour urine, final criteria of Table 9

T1 sequence (P09848 869-1927): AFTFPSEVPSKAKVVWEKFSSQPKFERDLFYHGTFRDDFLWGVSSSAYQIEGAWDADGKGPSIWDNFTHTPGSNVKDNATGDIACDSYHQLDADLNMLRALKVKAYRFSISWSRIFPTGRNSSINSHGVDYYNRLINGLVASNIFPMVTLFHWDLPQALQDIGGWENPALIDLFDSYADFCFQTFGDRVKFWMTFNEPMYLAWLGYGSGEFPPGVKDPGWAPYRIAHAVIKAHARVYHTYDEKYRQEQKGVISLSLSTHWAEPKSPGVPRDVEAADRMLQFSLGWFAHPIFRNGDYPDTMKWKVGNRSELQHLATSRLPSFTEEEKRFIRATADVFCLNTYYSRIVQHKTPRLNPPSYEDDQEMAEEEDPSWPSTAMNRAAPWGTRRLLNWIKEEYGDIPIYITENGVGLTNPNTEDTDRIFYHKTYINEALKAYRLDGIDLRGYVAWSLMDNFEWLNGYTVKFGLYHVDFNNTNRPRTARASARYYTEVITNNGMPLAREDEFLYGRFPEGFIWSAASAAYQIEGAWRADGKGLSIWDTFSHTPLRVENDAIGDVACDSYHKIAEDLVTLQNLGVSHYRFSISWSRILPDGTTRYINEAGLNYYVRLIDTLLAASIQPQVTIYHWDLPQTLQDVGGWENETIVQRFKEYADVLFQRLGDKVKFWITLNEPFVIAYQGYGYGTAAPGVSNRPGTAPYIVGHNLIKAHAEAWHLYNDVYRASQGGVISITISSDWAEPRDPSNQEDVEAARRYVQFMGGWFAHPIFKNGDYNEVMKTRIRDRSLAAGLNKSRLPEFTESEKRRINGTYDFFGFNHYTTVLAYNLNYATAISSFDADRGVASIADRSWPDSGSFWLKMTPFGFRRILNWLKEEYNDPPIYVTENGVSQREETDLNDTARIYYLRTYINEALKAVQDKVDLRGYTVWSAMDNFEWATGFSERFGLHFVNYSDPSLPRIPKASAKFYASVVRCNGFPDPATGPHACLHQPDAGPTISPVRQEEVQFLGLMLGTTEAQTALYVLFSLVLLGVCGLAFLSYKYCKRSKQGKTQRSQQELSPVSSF

## O=C[C@H](O)[C@@H](O)[C@@H](CO)O[C@@H]1O[C@H](CO)[C@H](O)[C@H](O)[C@H]1O [4-GX, 4-O-β-galactopyranosyl-D-xylose]
[1]; [3]
  No. Negative: 100
  No. Positive (patients presenting intestinal lactase deficiency): 105
  Percentage of patients negative: 49%
  Percentage of patients positive: 51.2% and 51%
[1]; [4]
  Negative predictive value: 90%
  Positive predictive value: 93.3% and 93.33%
  Sensitivity: 90.7% and 90.74%
  Specificity: 92.8% and 92.78%
[1]; 4-hour urine samples
  sensitivity calculated using the ROC curves: 90.7%
  specificity calculated using the ROC curves: 93.8%
[1]; 4-hour urine test, after correcting biopsy diagnosis
  range of recalculated sensitivity, specificity, positive and negative predictive values: 96.00-98.10
[1]; [5]
  false negatives: 3.74%
  negative likelihood ratio: 0.038
  positive likelihood ratio: 47.168
[1]; [6]
  Negative predictive value: 96.00%
  Positive predictive value: 98.10%
  Sensitivity: 96.26%
  Specificity: 97.96%
[1]; [7]
  Negative predictive value: 97.00%
  Positive predictive value: 99.05%
  Sensitivity: 97.20%
  Specificity: 98.98%
[1]; [8]
  area under the ROC curve: 0.9282
  false negatives: 9.3%
  false positives: 7.2%
[1]; [9]
  concordant positive results, percentage: 96.3%
  final number of concordant positive results: 103
  negative results (concordant), percentage: 98.0%
  number of negative results (concordant): 96
[2]; 4-GX 0.125 g
  Cut-off point, total xylose in 4-hour urine: 11.88 mg
  Cut-off point, total xylose in 5-hour urine: 16.72 mg
[2]; 4-GX 0.250 g
  Cut-off point, total xylose in 4-hour urine: 20.62 mg
  Cut-off point, total xylose in 5-hour urine: 28.08 mg
[2]; 4-GX 0.5 g
  Cut-off point, total xylose in 4-hour urine: 27.58 mg
  Cut-off point, total xylose in 5-hour urine: 37.87 mg
  Cut-off point, xylose concentration in 90-min blood (increase over basal): 0.41 mg/dL
[2]; 4-GX 1 g
  Cut-off point, total xylose in 4-hour urine: 33.04 mg
  Cut-off point, total xylose in 5-hour urine: 41.35 mg
  Cut-off point, xylose concentration in 90-min blood (increase over basal): 0.53 mg/dL
[2]; 4-GX 3 g
  Cut-off point, total xylose in 4-hour urine: 45.58 mg
  Cut-off point, total xylose in 5-hour urine: 69.57 mg and 69.75 mg
  Cut-off point, xylose concentration in 90-min blood (increase over basal): 0.97 mg/dL
[2]; 4-GX 6 g
  Cut-off point, total xylose in 4-hour urine: 87.96 mg
  Cut-off point, total xylose in 5-hour urine: 110.12 mg
  Cut-off point, xylose concentration in 90-min blood (increase over basal): 1.44 mg/dL
